# Where two headings read alike, the source gives them in different places. Where a SMILES comes first, the peptide text is derived from it. [ ]: non-standard residue; d: D form. Aib = CC(C)(N)C(=O)O
# What was measured:
# [1] = test system: Mouse monocyte/macrophage cell line, RAW 264.7; experiment: Cholesterol efflux assay (3H-cholesterol, macrophage cell line); assay type: cell-based; settings: RAW 264.7, 4 hrs incubation, 0.1% human serum albumin, ABCA1-mediated efflux
# [2] = biological target: human GLP-1 receptor (Homo sapiens, UniProt P43220); experiment: Functional GLP-1 receptor assay, in vitro potency (CRE luciferase; whole cells); assay type: cell-based; settings: BHK cells expressing human GLP-1 receptor
# human GLP-1 receptor, sequence (P43220 24-463): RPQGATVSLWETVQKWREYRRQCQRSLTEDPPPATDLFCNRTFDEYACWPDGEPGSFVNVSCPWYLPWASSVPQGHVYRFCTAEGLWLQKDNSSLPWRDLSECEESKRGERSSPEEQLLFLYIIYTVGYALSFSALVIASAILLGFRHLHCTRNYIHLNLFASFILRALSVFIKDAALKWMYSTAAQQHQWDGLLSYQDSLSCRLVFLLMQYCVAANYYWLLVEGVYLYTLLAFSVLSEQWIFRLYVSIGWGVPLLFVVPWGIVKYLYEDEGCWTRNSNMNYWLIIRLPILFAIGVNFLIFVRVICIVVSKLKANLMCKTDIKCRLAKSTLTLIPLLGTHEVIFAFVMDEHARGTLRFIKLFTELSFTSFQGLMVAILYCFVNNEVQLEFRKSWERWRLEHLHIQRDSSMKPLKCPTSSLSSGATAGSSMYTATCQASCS
# [3] = 0% HSA, read-out: GLP1R CRE luc 0% HSA EC50 Mean Value
# [4] = GLP1R CRE luc 1% HSA EC50 Mean Value, 1% HSA
"EC50 [2, 3] [nM]","EC50 [2, 4] [nM]",SMILES,4 h Cholesterol Efflux Emax [1] [%]
–,0.273,"CC[C@H](C)[C@H](NC(=O)[C@H](Cc1ccccc1)NC(=O)[C@H](CCC(=O)O)NC(=O)[C@H](CCCCN)NC(=O)[C@@H](NC(=O)[C@H](CCCNC(=N)N)NC(=O)[C@H](CCC(=O)O)NC(=O)CNC(=O)[C@H](CCC(=O)O)NC(=O)[C@H](CC(C)C)NC(=O)[C@H](Cc1ccc(O)cc1)NC(=O)[C@H](CO)NC(=O)[C@H](CO)NC(=O)[C@@H](NC(=O)[C@H](CC(=O)O)NC(=O)[C@H](CO)NC(=O)[C@@H](NC(=O)[C@H](Cc1ccccc1)NC(=O)[C@@H](NC(=O)CNC(=O)[C@H](CCC(=O)O)NC(=O)C(C)(C)NC(=O)[C@@H](N)Cc1c[nH]cn1)[C@@H](C)O)[C@@H](C)O)C(C)C)C(C)C)C(=O)N[C@@H](C)C(=O)N[C@@H](Cc1c[nH]c2ccccc12)C(=O)N[C@@H](CC(C)C)C(=O)N[C@H](C(=O)N[C@@H](CCC(=O)O)C(=O)N[C@@H](CCCCN)C(=O)NC(C)(C)C(=O)N[C@@H](CCCCN)C(=O)N[C@@H](CCC(=O)O)C(=O)N[C@@H](Cc1ccccc1)C(=O)N[C@@H](CC(C)C)C(N)=O)C(C)C [Compound 53, [Aib8,Glu23,Arg24,Val25,Glu34,Lys35,Aib36,Lys37]-GLP-1-(7-37)-peptidyl-Glu-Phe-Leu amide] (H-H[Aib]EGTFTSDVSSYLEGERVKEFIAWLVEK[Aib]KEFL-NH2)",109
0.08,0.049,CC[C@H](C)[C@H](NC(=O)[C@H](Cc1ccccc1)NC(=O)[C@H](CCC(=O)O)NC(=O)[C@H](CCCCN)NC(=O)[C@H](C)NC(=O)[C@H](C)NC(=O)[C@H](CCC(=O)O)NC(=O)[C@H](CCC(=O)O)NC(=O)[C@H](CCC(=O)O)NC(=O)[C@H](CC(C)C)NC(=O)[C@H](Cc1ccc(O)cc1)NC(=O)[C@H](CCCCN)NC(=O)[C@H](CO)NC(=O)[C@H](Cc1ccc(O)cc1)NC(=O)[C@H](CC(=O)O)NC(=O)[C@H](CO)NC(=O)[C@@H](NC(=O)[C@H](Cc1ccccc1)NC(=O)[C@@H](NC(=O)CNC(=O)[C@H](Cc1c[nH]cn1)NC(=O)C(C)(C)NC(=O)[C@@H](N)Cc1c[nH]cn1)[C@@H](C)O)[C@@H](C)O)C(=O)N[C@@H](C)C(=O)N[C@@H](Cc1c[nH]c2ccccc12)C(=O)N[C@@H](CC(C)C)C(=O)N[C@@H](CC(C)C)C(=O)N[C@@H](CCC(=O)O)C(=O)N[C@@H](CCCCN)C(=O)NC(C)(C)C(=O)N[C@@H](CCCCN)C(=O)N[C@@H](CCC(=O)O)C(=O)N[C@@H](Cc1ccccc1)C(=O)N[C@@H](CC(C)C)C(N)=O [Compound 55] (H-H[Aib]HGTFTSDYSKYLEEEAAKEFIAWLLEK[Aib]KEFL-NH2),96

# The next lines start with the compound.
SMILES,"EC50 [2, 3] [nM]","EC50 [2, 4] [nM]",4 h Cholesterol Efflux Emax [1] [%]
"CC[C@H](C)[C@H](NC(=O)[C@H](Cc1ccccc1)NC(=O)[C@H](CCC(=O)O)NC(=O)[C@H](CCCNC(=N)N)NC(=O)[C@@H](NC(=O)[C@H](C)NC(=O)[C@H](CCC(=O)O)NC(=O)[C@H](CCC(=O)O)NC(=O)[C@H](CCC(=O)O)NC(=O)[C@H](CCSC)NC(=O)[C@H](CCC(N)=O)NC(=O)[C@H](CCCCN)NC(=O)[C@H](CO)NC(=O)[C@H](CC(C)C)NC(=O)[C@H](CC(=O)O)NC(=O)[C@H](CO)NC(=O)[C@@H](NC(=O)[C@H](Cc1ccccc1)NC(=O)[C@@H](NC(=O)CNC(=O)[C@H](CCC(=O)O)NC(=O)C(C)(C)NC(=O)[C@@H](N)Cc1c[nH]cn1)[C@@H](C)O)[C@@H](C)O)C(C)C)C(=O)N[C@@H](CCC(=O)O)C(=O)N[C@@H](Cc1c[nH]c2ccccc12)C(=O)N[C@@H](CC(C)C)C(=O)N[C@@H](CCCCN)C(=O)N[C@@H](CC(N)=O)C(=O)N[C@@H](CCCCN)C(=O)NC(C)(C)C(=O)N[C@@H](CC(C)C)C(=O)N[C@@H](CCC(=O)O)C(=O)N[C@@H](Cc1ccccc1)C(=O)N[C@@H](CC(C)C)C(=O)N[C@@H](CCC(=O)O)C(=O)N1CCC[C@H]1C(=O)N[C@@H](CC(C)C)C(N)=O [Compound 39, [Aib2,Glu21,Lys29,Aib30,Leu31,Glu32,Phe33,Leu34,Glu35,Leu371-Exendin-4-(1-37)-peptide amide] (H-H[Aib]EGTFTSDLSKQMEEEAVREFIEWLKNK[Aib]LEFLEPL-NH2; N-terminus assumed)",0.032,0.013,113
"CC[C@H](C)[C@H](NC(=O)[C@H](Cc1ccccc1)NC(=O)[C@H](CCC(=O)O)NC(=O)[C@H](CCCNC(=N)N)NC(=O)[C@@H](NC(=O)[C@H](C)NC(=O)[C@H](CCC(=O)O)NC(=O)[C@H](CCC(=O)O)NC(=O)[C@H](CCC(=O)O)NC(=O)[C@H](CCSC)NC(=O)[C@H](CCC(N)=O)NC(=O)[C@H](CCCCN)NC(=O)[C@H](CO)NC(=O)[C@H](CC(C)C)NC(=O)[C@H](CC(=O)O)NC(=O)[C@H](CO)NC(=O)[C@@H](NC(=O)[C@H](Cc1ccccc1)NC(=O)[C@@H](NC(=O)CNC(=O)[C@H](CCC(=O)O)NC(=O)C(C)(C)NC(=O)[C@@H](N)Cc1c[nH]cn1)[C@@H](C)O)[C@@H](C)O)C(C)C)C(=O)N[C@@H](CCC(=O)O)C(=O)N[C@@H](Cc1c[nH]c2ccccc12)C(=O)N[C@@H](CC(C)C)C(=O)N[C@@H](CCCCN)C(=O)N[C@@H](CC(N)=O)C(=O)N[C@@H](CCCCN)C(=O)NC(C)(C)C(=O)N[C@@H](CC(C)C)C(=O)N[C@@H](CCC(=O)O)C(=O)N[C@@H](Cc1ccccc1)C(=O)N[C@@H](CC(C)C)C(=O)N[C@@H](CCC(=O)O)C(=O)N[C@@H](CC(C)C)C(=O)N1CCC[C@H]1C(N)=O [Compound 40, [Aib2,Glu21,Lys29,Aib30,Leu31,Glu32,Phe33,Leu34,Glu35,Leu361-Exendin-4-(1-37)-peptide amide] (H-H[Aib]EGTFTSDLSKQMEEEAVREFIEWLKNK[Aib]LEFLELP-NH2; N-terminus assumed)",0.023,0.01,91
CC[C@H](C)[C@H](NC(=O)[C@H](Cc1ccccc1)NC(=O)[C@H](CCC(=O)O)NC(=O)[C@H](CCCNC(=N)N)NC(=O)[C@@H](NC(=O)[C@H](C)NC(=O)[C@H](CCC(=O)O)NC(=O)CNC(=O)[C@H](CCC(=O)O)NC(=O)[C@H](CC(C)C)NC(=O)[C@H](Cc1ccc(O)cc1)NC(=O)[C@H](CO)NC(=O)[C@H](CO)NC(=O)[C@@H](NC(=O)[C@H](CC(=O)O)NC(=O)[C@H](CO)NC(=O)[C@@H](NC(=O)[C@H](Cc1ccccc1)NC(=O)[C@@H](NC(=O)CNC(=O)[C@H](CCC(=O)O)NC(=O)C(C)(C)NC(=O)[C@@H](N)Cc1c[nH]cn1)[C@@H](C)O)[C@@H](C)O)C(C)C)C(C)C)C(=O)N[C@@H](C)C(=O)N[C@@H](Cc1c[nH]c2ccccc12)C(=O)N[C@@H](CC(C)C)C(=O)N[C@H](C(=O)N[C@@H](CCC(=O)O)C(=O)N[C@@H](CCCNC(=N)N)C(=O)NC(C)(C)C(=O)N[C@@H](CCCNC(=N)N)C(=O)N[C@@H](CCC(=O)O)C(=O)N[C@@H](Cc1ccccc1)C(=O)N[C@@H](CC(C)C)C(N)=O)C(C)C [Compound 43] (H-H[Aib]EGTFTSDVSSYLEGEAVREFIAWLVER[Aib]REFL-NH2),0.086,0.041,82
"CC[C@H](C)[C@H](NC(=O)[C@H](Cc1ccccc1)NC(=O)[C@H](CCC(=O)O)NC(=O)[C@H](CCCCN)NC(=O)[C@@H](NC(=O)[C@H](C)NC(=O)[C@H](CCC(=O)O)NC(=O)CNC(=O)[C@H](CCC(=O)O)NC(=O)[C@H](CC(C)C)NC(=O)[C@H](Cc1ccc(O)cc1)NC(=O)[C@H](CO)NC(=O)[C@H](CO)NC(=O)[C@@H](NC(=O)[C@H](CC(=O)O)NC(=O)[C@H](CO)NC(=O)[C@@H](NC(=O)[C@H](Cc1ccccc1)NC(=O)[C@@H](NC(=O)CNC(=O)[C@H](CCC(=O)O)NC(=O)C(C)(C)NC(=O)[C@@H](N)Cc1c[nH]cn1)[C@@H](C)O)[C@@H](C)O)C(C)C)C(C)C)C(=O)N[C@@H](C)C(=O)N[C@@H](Cc1c[nH]c2ccccc12)C(=O)N[C@@H](CC(C)C)C(=O)N[C@H](C(=O)N[C@@H](CCC(=O)O)C(=O)N[C@@H](CCCCN)C(=O)N[C@@H](Cc1ccccc1)C(=O)N[C@@H](CCCCN)C(=O)N[C@@H](CCC(=O)O)C(=O)N[C@@H](C)C(=O)N[C@@H](Cc1ccccc1)C(N)=O)C(C)C [Compound 46, [Aib8,Glu23,Val25,Glu34,Lys35,Phe36,Lys37]-GLP-1-(7-37)-peptidyl-Glu-Ala-Phe amide] (H-H[Aib]EGTFTSDVSSYLEGEAVKEFIAWLVEKFKEAF-NH2)",0.372,–,98
"CC[C@H](C)[C@H](NC(=O)[C@H](Cc1ccccc1)NC(=O)[C@H](CCC(=O)O)NC(=O)[C@H](CCCCN)NC(=O)[C@@H](NC(=O)[C@H](C)NC(=O)[C@H](CCC(=O)O)NC(=O)CNC(=O)[C@H](CCC(=O)O)NC(=O)[C@H](CC(C)C)NC(=O)[C@H](Cc1ccc(O)cc1)NC(=O)[C@H](CO)NC(=O)[C@H](CO)NC(=O)[C@@H](NC(=O)[C@H](CC(=O)O)NC(=O)[C@H](CO)NC(=O)[C@@H](NC(=O)[C@H](Cc1ccccc1)NC(=O)[C@@H](NC(=O)CNC(=O)[C@H](CCC(=O)O)NC(=O)C(C)(C)NC(=O)[C@@H](N)Cc1c[nH]cn1)[C@@H](C)O)[C@@H](C)O)C(C)C)C(C)C)C(=O)N[C@@H](Cc1c[nH]c2ccccc12)C(=O)N[C@@H](Cc1c[nH]c2ccccc12)C(=O)N[C@@H](CC(C)C)C(=O)N[C@H](C(=O)N[C@@H](CCC(=O)O)C(=O)N[C@@H](CCCCN)C(=O)NC(C)(C)C(=O)N[C@@H](CCCCN)C(=O)N[C@@H](CCC(=O)O)C(=O)N[C@@H](Cc1ccccc1)C(=O)N[C@@H](CC(C)C)C(N)=O)C(C)C [Compound 50, [Aib8,Glu23,Val25,Trp30,Glu34,Lys35,Aib36,Lys37]-GLP-1-(7-37)-peptidyl-Glu-Phe-Leu amide] (H-H[Aib]EGTFTSDVSSYLEGEAVKEFIWWLVEK[Aib]KEFL-NH2)",0.157,–,87

# Source: patent US20150344540A1, “NOVEL GLP-1 RECEPTOR AGONISTS WITH CHOLESTEROL EFFLUX ACTIVITY” (NOVO NORDISK A/S, priority 2012, published 2015)
